Laboratory results taken from US9630977B2, “Cephalosporin derivatives and pharmaceutical compositions thereof” (Legochem Biosciences, Inc., priority 2011, dated 2017).
Converted amounts (≈) assume the structure as drawn. Where two headings read alike, the source gives them in different places.

How the values were obtained:
Assay in all cases: In vitro antibacterial activity test (broth microdilution)
Format in all cases: cell-based
A. baumannii 46 = tested on: A. baumannii 46
Method in brief: (§1)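 MIC90 (ug/mL) reported. CLSI microdilution in broth, clinical strains, 0.0626–128 ug/mL final compound, 2.5% v/v DMSO co-solvent.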

A. baumannii 49 = tested on: A. baumannii 49
Method in brief: as §1

A. baumannii 52 = settings: Acinetobacter baumannii
Method in brief: as §1

[1] = tested on: A. calcoaceticus ATCC15473; settings: Acinetobacter calcoaceticus
Method in brief: as §1

E. cloacae β19 = settings: Enterobacter cloacae
Method in brief: as §1

E. coli AG100 = settings: Escherichia coli
Method in brief: as §1

E. coli β4 = settings: Escherichia coli
Method in brief: as §1

K. pneumoniae 2011E = settings: Klebsiella pneumoniae, 2011E
Method in brief: as §1

K. pneumoniae β10 = settings: Klebsiella pneumoniae
Method in brief: as §1

K. pneumoniae β11 = settings: Klebsiella pneumoniae
Method in brief: as §1

K. pneumoniae β13 = settings: Klebsiella pneumoniae
Method in brief: as §1

K. pneumoniae β14 = settings: Klebsiella pneumoniae
Method in brief: as §1

K. pneumoniae β9 = settings: Klebsiella pneumoniae
Method in brief: as §1

M. catarrhalis 2524 = settings: Moraxella catarrhalis
Method in brief: as §1

P. aeruginosa 1912E = settings: Pseudomonas aeruginosa, 1912E
Method in brief: as §1

P. aeruginosa 37 = settings: Pseudomonas aeruginosa, 37, P. aeruginosa 37
Method in brief: as §1

P. aeruginosa 40 = tested on: P. aeruginosa 40
Method in brief: as §1

P. aeruginosa 43 = settings: Pseudomonas aeruginosa
Method in brief: as §1

P. aeruginosa 6065Y = settings: Pseudomonas aeruginosa
Method in brief: as §1

[2] = Acinetobacter baumannii, A. baumannii 46, read-out: MIC90
[3] = Acinetobacter baumannii, A. baumannii 49, read-out: MIC90
[4] = A. baumannii 52, read-out: MIC90
[5] = A. calcoaceticus ATCC15473, read-out: MIC90
[6] = AG100, E. coli AG100, read-out: MIC90
[7] = K. pneumoniae 2011E, read-out: MIC90
[8] = K. pneumoniae β10, read-out: MIC90
[9] = K. pneumoniae β11, read-out: MIC90
[10] = K. pneumoniae β13, read-out: MIC90
[11] = K. pneumoniae β9, read-out: MIC90
[12] = M. catarrhalis 2524, read-out: MIC90
[13] = Pseudomonas aeruginosa, 40, P. aeruginosa 40, read-out: MIC90
[14] = P. aeruginosa 43, read-out: MIC90
[15] = Acinetobacter baumannii, 46, A. baumannii 46
[16] = Acinetobacter baumannii, 49, A. baumannii 49
[17] = ATCC15473, A. calcoaceticus ATCC15473

MIC90 (A. baumannii 46; [2])	SMILES	MIC90 (A. baumannii 46; [15])	MIC90 (A. baumannii 49; [16])	MIC90 (A. baumannii 52; 52)	MIC90 [1, 17]	MIC90 (E. cloacae β19)	MIC90 (E. coli AG100; AG100)	MIC90 (E. coli β4)	MIC90 (K. pneumoniae 2011E)	MIC90 (K. pneumoniae β10)	MIC90 (K. pneumoniae β11)	MIC90 (K. pneumoniae β13)	MIC90 (K. pneumoniae β14)	MIC90 (K. pneumoniae β9)	MIC90 (M. catarrhalis 2524; 2524)	MIC90 (P. aeruginosa 1912E)	MIC90 (P. aeruginosa 37)	MIC90 (P. aeruginosa 40; Pseudomonas aeruginosa, 40)	MIC90 (P. aeruginosa 43; 43)	MIC90 (P. aeruginosa 6065Y; 6065Y)	further results
2 µg/mL (≈ 2.64 µM)	CC(C)(O/N=C(\C(=O)N[C@@H]1C(=O)N2C(C(=O)[O-])=C(/C=C/C[n+]3cnc(N)c(NC(=O)c4cc(=O)c(O)cn4O)c3)CSC12)c1csc(N)n1)C(=O)O (some centres unmarked) [Compound 14]																				MIC90 (A. baumannii 49; [3]): > 128 µg/mL; MIC90 (A. baumannii 52; [4]): 8 µg/mL (≈ 10.6 µM); MIC90 [1, 5]: 0.25 µg/mL (≈ 0.33 µM); MIC90 (E. cloacae β19; read-out: MIC90): 64 µg/mL (≈ 84.6 µM); MIC90 (E. coli AG100; [6]): 0.25 µg/mL (≈ 0.33 µM); MIC90 (E. coli β4; read-out: MIC90): 1 µg/mL (≈ 1.32 µM); MIC90 (K. pneumoniae 2011E; [7]): 2 µg/mL (≈ 2.64 µM); MIC90 (K. pneumoniae β10; [8]): 0.5 µg/mL (≈ 0.661 µM); MIC90 (K. pneumoniae β11; [9]): 64 µg/mL (≈ 84.6 µM); MIC90 (K. pneumoniae β13; [10]): 0.5 µg/mL (≈ 0.661 µM); MIC90 (K. pneumoniae β14; read-out: MIC90): 8 µg/mL (≈ 10.6 µM); MIC90 (K. pneumoniae β9; [11]): 2 µg/mL (≈ 2.64 µM); MIC90 (M. catarrhalis 2524; [12]): 0.25 µg/mL (≈ 0.33 µM); MIC90 (P. aeruginosa 1912E; read-out: MIC90): 1 µg/mL (≈ 1.32 µM); MIC90 (P. aeruginosa 37; read-out: MIC90): 16 µg/mL (≈ 21.1 µM); MIC90 (P. aeruginosa 40; [13]): 0.25 µg/mL (≈ 0.33 µM); MIC90 (P. aeruginosa 43; [14]): 0.25 µg/mL (≈ 0.33 µM); MIC90 (P. aeruginosa 6065Y; read-out: MIC90): 2 µg/mL (≈ 2.64 µM)
	CC(C)(O/N=C(\C(=O)N[C@@H]1C(=O)N2C(C(=O)[O-])=C(/C=C/C[n+]3cnc(N)c(NCCN)c3)CSC12)c1nc(N)sc1Cl)C(=O)O (some centres unmarked) [Compound 54]	4 µg/mL (≈ 5.87 µM)	128 µg/mL (≈ 188 µM)	32 µg/mL (≈ 47 µM)	1 µg/mL (≈ 1.47 µM)	4 µg/mL (≈ 5.87 µM)	0.25 µg/mL (≈ 0.367 µM)	0.5 µg/mL (≈ 0.734 µM)	1 µg/mL (≈ 1.47 µM)	0.5 µg/mL (≈ 0.734 µM)	2 µg/mL (≈ 2.94 µM)	1 µg/mL (≈ 1.47 µM)	1 µg/mL (≈ 1.47 µM)	1 µg/mL (≈ 1.47 µM)	< 0.0625 µg/mL	2 µg/mL (≈ 2.94 µM)	4 µg/mL (≈ 5.87 µM)	4 µg/mL (≈ 5.87 µM)	64 µg/mL (≈ 94 µM)	16 µg/mL (≈ 23.5 µM)	
	CC(C)(O/N=C(\C(=O)N[C@@H]1C(=O)N2C(C(=O)[O-])=C(/C=C/C[n+]3cnc(N)c(NC(=O)CCCN)c3)CSC12)c1nc(N)sc1Cl)C(=O)O (some centres unmarked) [Compound 64]	16 µg/mL (≈ 22.1 µM)	32 µg/mL (≈ 44.2 µM)	32 µg/mL (≈ 44.2 µM)	1 µg/mL (≈ 1.38 µM)	8 µg/mL (≈ 11.1 µM)	0.5 µg/mL (≈ 0.691 µM)	1 µg/mL (≈ 1.38 µM)	2 µg/mL (≈ 2.77 µM)	1 µg/mL (≈ 1.38 µM)	8 µg/mL (≈ 11.1 µM)	2 µg/mL (≈ 2.77 µM)	2 µg/mL (≈ 2.77 µM)	2 µg/mL (≈ 2.77 µM)	< 0.0625 µg/mL	4 µg/mL (≈ 5.53 µM)	16 µg/mL (≈ 22.1 µM)	8 µg/mL (≈ 11.1 µM)	128 µg/mL (≈ 177 µM)	32 µg/mL (≈ 44.2 µM)	
4 µg/mL (≈ 5.17 µM)	CC(C)(O/N=C(\C(=O)N[C@@H]1C(=O)N2C(C(=O)[O-])=C(C[n+]3cnc(N)c(NCCNC(=O)c4cc(=O)c(O)cn4O)c3)CSC12)c1csc(N)n1)C(=O)O (some centres unmarked) [Compound 1]																				MIC90 (A. baumannii 49; [3]): 16 µg/mL (≈ 20.7 µM); MIC90 (A. baumannii 52; [4]): 32 µg/mL (≈ 41.4 µM); MIC90 [1, 5]: 0.5 µg/mL (≈ 0.646 µM); MIC90 (E. cloacae β19; read-out: MIC90): 2 µg/mL (≈ 2.58 µM); MIC90 (E. coli AG100; [6]): < 0.0625 µg/mL; MIC90 (E. coli β4; read-out: MIC90): 2 µg/mL (≈ 2.58 µM); MIC90 (K. pneumoniae 2011E; [7]): 2 µg/mL (≈ 2.58 µM); MIC90 (K. pneumoniae β10; [8]): 0.125 µg/mL (≈ 0.162 µM); MIC90 (K. pneumoniae β11; [9]): 128 µg/mL (≈ 165 µM); MIC90 (K. pneumoniae β13; [10]): 0.5 µg/mL (≈ 0.646 µM); MIC90 (K. pneumoniae β14; read-out: MIC90): 128 µg/mL (≈ 165 µM); MIC90 (K. pneumoniae β9; [11]): 4 µg/mL (≈ 5.17 µM); MIC90 (M. catarrhalis 2524; [12]): 1 µg/mL (≈ 1.29 µM); MIC90 (P. aeruginosa 1912E; read-out: MIC90): 0.25 µg/mL (≈ 0.323 µM); MIC90 (P. aeruginosa 37; read-out: MIC90): 0.5 µg/mL (≈ 0.646 µM); MIC90 (P. aeruginosa 40; [13]): 0.25 µg/mL (≈ 0.323 µM); MIC90 (P. aeruginosa 43; [14]): 0.25 µg/mL (≈ 0.323 µM); MIC90 (P. aeruginosa 6065Y; read-out: MIC90): 1 µg/mL (≈ 1.29 µM)
	CC(C)(O/N=C(\C(=O)N[C@@H]1C(=O)N2C(C(=O)[O-])=C(/C=C/C[n+]3cnc(N)c(NC(=O)CCN)c3)CSC12)c1nc(N)sc1Cl)C(=O)O (some centres unmarked) [Compound 62]	16 µg/mL (≈ 22.6 µM)	32 µg/mL (≈ 45.1 µM)	32 µg/mL (≈ 45.1 µM)	1 µg/mL (≈ 1.41 µM)	4 µg/mL (≈ 5.64 µM)	0.5 µg/mL (≈ 0.705 µM)	0.5 µg/mL (≈ 0.705 µM)	1 µg/mL (≈ 1.41 µM)	0.5 µg/mL (≈ 0.705 µM)	1 µg/mL (≈ 1.41 µM)	1 µg/mL (≈ 1.41 µM)	1 µg/mL (≈ 1.41 µM)	1 µg/mL (≈ 1.41 µM)	< 0.0625 µg/mL	4 µg/mL (≈ 5.64 µM)	8 µg/mL (≈ 11.3 µM)	8 µg/mL (≈ 11.3 µM)	64 µg/mL (≈ 90.2 µM)	16 µg/mL (≈ 22.6 µM)	
